Experimental data published in patent publication US6015822A, “Sulfonamide-substituted fused 5-membered ring compounds, their use as a medicament, and pharmaceutical preparations comprising them” (Hoechst Marion Roussel Deutschland GmbH, priority 1997, dated 2000).

These compounds were tested against T1, human IsK protein (UniProt P15382+P70057) (assay: Inhibition of IsK current in Xenopus oocytes expressing human IsK (two microelectrode voltage clamp)). Details: human IsK expressed in Xenopus oocytes; voltage jumps to -10 mV lasting 15 s; pH 7.5; room temperature; extrapolated using the Hill equation; read-out: IC-50 (inhibition of IsK control current).
T1 construct: expressed in transfected cells; host or cells: Xenopus laevis oocytes injected with in vitro synthesized IsK RNA
T1 sequence (P70057 whole entry): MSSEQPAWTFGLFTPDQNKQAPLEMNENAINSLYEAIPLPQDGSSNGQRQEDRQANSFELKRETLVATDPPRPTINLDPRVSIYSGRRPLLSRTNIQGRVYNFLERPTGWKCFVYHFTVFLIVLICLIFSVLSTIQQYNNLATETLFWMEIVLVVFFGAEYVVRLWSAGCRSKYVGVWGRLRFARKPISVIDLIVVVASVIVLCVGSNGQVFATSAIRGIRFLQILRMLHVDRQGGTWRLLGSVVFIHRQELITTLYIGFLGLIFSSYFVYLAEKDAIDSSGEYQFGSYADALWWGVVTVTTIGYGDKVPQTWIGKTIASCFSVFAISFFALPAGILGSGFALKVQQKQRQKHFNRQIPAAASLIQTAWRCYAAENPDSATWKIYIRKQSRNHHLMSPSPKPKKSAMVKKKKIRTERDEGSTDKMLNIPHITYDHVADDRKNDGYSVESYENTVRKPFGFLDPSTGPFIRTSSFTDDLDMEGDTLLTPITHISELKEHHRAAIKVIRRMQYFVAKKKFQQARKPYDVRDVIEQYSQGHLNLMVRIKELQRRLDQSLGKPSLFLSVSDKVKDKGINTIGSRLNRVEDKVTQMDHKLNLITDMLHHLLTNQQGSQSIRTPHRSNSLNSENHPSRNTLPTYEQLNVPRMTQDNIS
Type: cell-based
Description: IsK channels from man, rat or guinea-pig were expressed in Xenopus oocytes. To do this, oocytes were first isolated from Xenopus Laevis and defolliculated. IsK -encoding RNA synthesized in vitro was then injected into these oocytes. After IsK protein expression for 2-8 days, IsK currents were measured in the oocytes using the two microelectrode voltage clamp technique. The IsK channels were in this case as a rule activated using voltage jumps to -10 mV lasting 15 s. The bath was irrigated with a solution of the following composition: NaCl 96 mM, KCl 2 mM, CaCl2 1.8 mM, MgCl2 1 mM, HEPES 5 mM (titrated with NaOH to pH 7.5). These experiments were carried out at room temperature. The following were employed for acquiring data and analysis: Geneclamp amplifier (Axon Instruments, Foster City, U.S.A.) and MacLab D/A converter and software (ADInstruments, Castle Hill, Australia). The substances according to the invention were tested by adding them to the bath solution in different concentrations. The effects of the substances were calculated as the percentage inhibition of the IsK control current, which was obtained when no substance was added to the solution. The data were then extrapolated using the Hill equation in order to determine the inhibitory concentrations IC50 for the respective substances.
In the described manner, using the human IsK protein, the following IC50 values were determined for the compounds according to the invention: […]

Structure (SMILES)	IC50 [µM]
CCS(=O)(=O)N(C)C1CC(C)(C)c2ccccc21 (stereo not shown) [Example 2, 3,3-Dimethyl-1-(N-ethylsulfonyl-N-methyl)aminoindan]	~15
CCCCN(C1CS(=O)(=O)c2ccccc21)S(C)(=O)=O (stereo not shown) [Example 5, N-Butyl-N-(1,1-dioxo-2,3-dihydro-1H-benzo[b]thiophen-3-yl)-methanesulfonamide]	> 10
CCCCN(C1CC(C)(C)c2ccc([N+](=O)[O-])cc21)S(C)(=O)=O (stereo not shown) [Example 11, 3,3-Dimethyl-6-nitro-1-(N-butyl-N-methylsulfonyl)aminoindan]	2.7
CCCCCCN(C1CC(C)(C)c2ccccc21)S(C)(=O)=O (stereo not shown) [Example 3, 3,3-Dimethyl-1-(N-hexyl-N-methylsulfonyl)aminoindan]	< 10
CCCCOc1ccc2c(c1)C(N(CC)S(C)(=O)=O)CC2(C)C (stereo not shown) [Example 14, 6-Butoxy-3,3-dimethyl-1-(N-ethyl-N-methylsulfonyl)aminoindan]	0.44
CCCCOc1ccc2c(c1)C(N(C)S(C)(=O)=O)CC2(C)C (stereo not shown) [Example 13, 6-Butoxy-3,3-dimethyl-1-(N-methyl-N-methylsulfonyl)aminoindan]	1.2
CC1(C)CC(N(Cc2ccncc2)S(C)(=O)=O)c2cc([N+](=O)[O-])ccc21 (stereo not shown) [Example 12, 3,3-Dimethyl-6-nitro-1-[N-(4-pyridylmethyl)-N-methylsulfonyl]aminoindan]	~2
